Patent publication US9551718B2, “TMEM120A ion channel modulator” (priority 2014, dated 2017)

Legend:
[1] = test system: mechanically-activated slowly-adapting (SA) current; conditions: sensory neurons; cited from earlier work
OA mice [2] = assay: Behavioral pain score in the OA mouse model after injection of an MSC blocker; format: in vivo; conditions: injection around 28 days following MIA
Experimental: (§1) Osteoarthritis is induced by injection of MIA (25 μg dissolved in 5 μl physiological saline) in the mouse knee joint. Control mice receive saline injection. The previously-described knee-bend test^28 is used to assess mechanical allodynia at the primary site of OA pain, as this test provides information regarding pain induced by movement of the affected joint^28 (FIG. 2a). Briefly, each test consists of 5 flexions and 5 extensions of the knee joint, and the total number of vocalization/struggle is recorded. The knee mechanical withdrawal threshold is determined with the Pressure Application Measurement (PAM) device, as previously described^132. Briefly, mice are gently restrained and a force transducer wrapped around the experimenter's thumb is pressed against the knee joint. […] Once the mouse withdraws its knee, the sensor identifies the maximum force applied before the withdrawal.
In an in vivo mouse OA model as described in Example 1, the OA mice further received around 28 days following injection of MIA an injection of a vehicle or either a toxin (GsMTx4 or gadolinium) blocking the MSCs.

TMEM120A [3] = molecular target: T1, TMEM120A (Homo sapiens, UniProt Q9BXJ8); assay: Cobalt precipitate accumulation in CHO cells stably expressing TMEM120A exposed to hypotonic media; format: cell-based; conditions: cells pretreated with blocker
T1 construct: expressed in transfected cells
T1 sequence (Q9BXJ8 1-343): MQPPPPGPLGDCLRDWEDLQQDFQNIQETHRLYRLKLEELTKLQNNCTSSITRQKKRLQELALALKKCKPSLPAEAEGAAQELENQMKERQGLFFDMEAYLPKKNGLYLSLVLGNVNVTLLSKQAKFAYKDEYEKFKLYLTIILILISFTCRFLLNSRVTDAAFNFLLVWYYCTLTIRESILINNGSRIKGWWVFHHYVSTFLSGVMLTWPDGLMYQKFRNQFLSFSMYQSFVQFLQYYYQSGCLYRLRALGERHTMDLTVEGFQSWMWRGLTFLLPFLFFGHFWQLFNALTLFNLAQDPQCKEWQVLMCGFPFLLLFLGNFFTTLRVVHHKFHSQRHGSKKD
Source text: In an embodiment, the assay comprises exposing CHO cells stably expressing TMEM120A (or controls) to hypotonic media. The membrane stretch caused by the swelling opens the channels, enabling the influx of calcium ions and other molecules such as cobalt if present in the media. Quantitating the ion channel activity after the cobalt enters the cells can comprise treating the cells with ammonium sulphide (1.2% Sigma # A1952), then fixing them with paraformaldehyde, then amplified through the silver enhancement method and measuring the amount of cobalt precipitate compared to a control.
CHO cells stably expressing TMEM120A (or controls) were exposed to hypotonic media. The membrane stretch caused by the swelling opens the channels, enabling the influx of calcium ions. In one alternative, calcium ions are substituted for cobalt After cobalt enters the cells, it is precipitated with ammonium sulfide, then the cells are fixed for example with paraformaldehyde, the precipitate is amplified through the silver enhancement method (by following steps provided by the commercial supplier, Sigma).

[4] = test system: cationic stretch-activated ion channels; conditions: from the extracellular side; cited from earlier work
[5] = test system: MSC activity in knee-innervating nociceptors; assay: Outside-out patch recording of mechanically-evoked MSC current in knee-innervating nociceptors; format: cell-based, mouse
Experimental: Isolated mouse sensory neurons are obtained by enzymatic digestion of the dorsal root ganglia L3-L4 followed by mechanical dispersion. Joint-innervating neurons are identified by the presence of Fluorogold (FG), a retrograde tracer injected in the knee joint 72 hours prior to dissection. […] Transgenic mice that express the fluorescent protein TdTomato in nociceptors are generated by crossing Crerecombinase-dependent TdTomato reporter mice to Trpv1-Cre mice (FIG. 4). In this approach, recording can be made specifically from articular nociceptors (FG- and TdTomato-positive neurons).
Experiments are done for example 1 hour after plating the isolated neurons in petri dishes, or after 3 days in culture (for example for conducting siRNA experiments). Whole-cell^137,138 and cell-attached^100,102 recordings are obtained using glass pipettes mounted to amplifier headstages driven by motorized micromanipulators. Signals are amplified using multi-clamp 700B amplifiers. All experimental protocols, data acquisition and analysis are performed using the Clampex® and Clampfit™ software.
MSCs are activated using different approaches. In whole-cell recordings, a computer driven stimulating probe is brought near the cell membrane, then brief steps of 0.5 μm amplitude are made toward the cell at a 45 degree angle using a motorized 3-axis micromanipulator. In cell-attached recordings, brief pulses of negative pressure are applied through the recording electrode to increase membrane tension and evoke MSC opening. These pressure pulses are generated by a high-speed pressure clamp device previously validated^100,102.
An outside-out patch is formed and the minimal positive pressure (+P) is applied to open MSCs. 5 μM GsMTx4 is superfused and the protocol is run again. GsMTx4 is then washed and the same patch undergoes one final protocol run. […] Likewise, wash causes the recovery of the reduction (Kruskal-Wallis with Dunn's multiple comparisons, n=161, 85, 100 for control, GsMTx4 and wash, respectively.

MIA injected mice = assay: Knee flexion-extension pain score after intra-articular injection in MIA mice; format: in vivo, mouse; conditions: for analgesia, knee flexion-extension pain score: intra-articular
Experimental: as §1
The GsMTx4 peptide sequence is […] (SEQ ID NO: 5). […] Moreover, it confirms that intra-articular injections can reach the nerve terminals of knee-innervating nociceptors. […] This indicates the analgesia is not due to the peptide leaking out of the joint to have a systemic effect. N=6-10 for GsMTx4 injections, N=9 for all groups in lidocaine trial.

OA mice [6] = assay: Von Frey test of secondary mechanical allodynia after hindpaw injection; format: in vivo, mouse
Experimental: Von Frey filaments are used to assess the secondary mechanical allodynia in the hindpaw (FIG. 2a). Mechanical withdrawal threshold is assessed by touching the plantar surface of the hindpaw with von Frey filaments using the up-down method as previously described^133. Positive withdrawals are counted as biting, licking and/or withdrawal of the paw during the 3 sec stimulus. In the knee-bend and PAM tests, MSC blockers are injected in the knee joint. In the von Frey test, they are injected in the intraplantar region.
To determine whether MSCs in nerve terminals at the primary site of the pathology (knee) contribute to mechanical allodynia in OA, the MSC blockers, GsMTx4 or gadolinium are injected in the knee joint of OA mice. Behavioral experiments include the knee-bend test^28 and the knee mechanical withdrawal test. To determine if MSCs contribute to secondary mechanical allodynia, GsMTx4 or gadolinium is injected in the ipsilateral hindpaw and assess secondary allodynia using the von Frey test. To determine whether these channels contribute to mechanosensitivity in the absence of allodynia, the blockers are injected in the knee joint or hindpaw of control mice.

TMEM120A [7] = assay: shRNA knockdown of TMEM120A in kidney epithelial cells (mIMCD), mechanosensitivity; format: cell-based, mouse; conditions: lentiviral particles
Experimental: Knockdown was performed by infecting the cells in culture with lentiviral particles expressing an shRNA against TMEM120A and a puromycin resistance gene. This mean of selection enabled to identify cells that had taken up the shRNA. A quantitative polymerase chain reaction was then performed to verify that mRNA levels for TMEM120A were down. The shRNA sequence is […] TTTG (SEQ ID NO: 4).

## [Gd] [gadolinium]
[1]
  block of SA current: blocked
OA mice [2]
  pain level as measured by a behavioral score: significantly decreases the pain level
TMEM120A [3]
  accumulation of cobalt precipitate on hypotonic stimuli: accumulation can be prevented

## GCLEFWWKCNPNDDKCCRPKLKCSKLFKLCNFSF (listed as Grammostola spatulata) [GsMTx4]
[4]
  block of cationic stretch-activated ion channels: block cationic stretch-activated ion channels
[1]
  block of SA current: blocked
OA mice [2]
  pain level as measured by a behavioral score: significantly decreases the pain level
[5]; 5 μM superfused, outside-out patch
  mean open time of the channel: mean open time is also significantly reduced
[5]; 5 μM superfused, outside-out patch, minimal positive pressure
  mechanically-evoked current (normalized to control trace): significantly reduces the mechanically-evoked current
[5]; after wash of 5 μM GsMTx4
  reversibility of current reduction on wash: this reduction is recovered following wash
TMEM120A [3]
  accumulation of cobalt precipitate on hypotonic stimuli: accumulation can be prevented
MIA injected mice; 5 μM
  analgesia, knee flexion-extension pain score: unable to produce analgesia
MIA injected mice; 50 μM injected in the contralateral knee
  analgesia, knee flexion-extension on the ipsilateral knee: does not provide analgesia
MIA injected mice; 50 μM, ipsilateral knee, vs saline
  analgesia, knee flexion-extension pain score: significant analgesia compared to vehicle
OA mice [6]; intraplantar injection 15 days after OA induction
  secondary allodynia: significant and reversible attenuation of the secondary allodynia
OA mice [6]; intraplantar injection, naïve mice
  mechanical sensitivity (withdrawal threshold): does not affect mechanical sensitivity
OA mice [6]; ipsilateral hindpaw injection, MIA mice
  duration of effect on mechanical hypersensitivity: ≤ 24 h

## N.N.N.N.N.N.N.N.N.N.N.N.N.N.[Cl-].[Cl-].[Cl-].[Cl-].[Cl-].[Cl-].[O-2].[O-2].[Ru+3].[Ru+3].[Ru+4] [ruthenium red]
[1]
  block of SA current: blocked

## CCN(CC)CC(=O)Nc1c(C)cccc1C [lidocaine]
MIA injected mice; 5% in DMSO, intra-articular injection, vs vehicle
  percentage of analgesia: significantly larger percentage of analgesia compared to vehicle

## CCGGTTCCTGCTGGTCTGGTATTATCTCGAGATAATACCAGACCAGCAGGAATT TTTG (CCGGTTCCTGCTGGTCTGGTATTATCTCGAGATAATACCAGACCAGCAGGAATTTTTG; expressed or natural sequence) [shRNA against TMEM120A, short hairpin RNA against TMEM120A expressed from lentiviral particles]
TMEM120A [7]
  mechanosensitivity: reduces mechanosensitivity
